In the supplement of paper PMC10307832:

Columns and labels:
Assay in all cases: relative viability (nuclei count vs DMSO), 5 days (fraction); higher = more cells survive
Ispinesib + Dasatinib = compound: Cc1ccc(C(=O)N(CCCN)[C@@H](c2nc3cc(Cl)ccc3c(=O)n2Cc2ccccc2)C(C)C)cc1 [Ispinesib] + Cc1nc(Nc2ncc(C(=O)Nc3c(C)cccc3Cl)s2)cc(N2CCN(CCO)CC2)n1 [Dasatinib] (partner 0.075 µM)
Method in brief: (§1)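 Lung cancer cell lines in 1536-well plates were dosed by pin tool the day after seeding, either with one drug alone or with a fixed anchor-drug dose plus five library-drug doses (not always all listed) in √10 steps. After 5 days, cells were fixed and their nuclei stained in one step (final 0.05% Triton X-100, 1% formaldehyde, 1 ug/ml Hoechst), then counted on 4× images. Relative viability is the nuclei count in treated wells divided by that in vehicle wells. Values are medians of duplicate plates.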

Ispinesib + Lapatinib = compound: Cc1ccc(C(=O)N(CCCN)[C@@H](c2nc3cc(Cl)ccc3c(=O)n2Cc2ccccc2)C(C)C)cc1 [Ispinesib] + CS(=O)(=O)CCNCc1ccc(-c2ccc3ncnc(Nc4ccc(OCc5cccc(F)c5)c(Cl)c4)c3c2)o1 [Lapatinib] (partner 2 µM)
Method in brief: as §1

Ispinesib + Vorinostat = compound: Cc1ccc(C(=O)N(CCCN)[C@@H](c2nc3cc(Cl)ccc3c(=O)n2Cc2ccccc2)C(C)C)cc1 [Ispinesib] + O=C(CCCCCCC(=O)Nc1ccccc1)NO [Vorinostat] (partner 1 µM)
Method in brief: as §1

Linsitinib + Vorinostat = compound: C[C@]1(O)C[C@@H](c2nc(-c3ccc4ccc(-c5ccccc5)nc4c3)c3c(N)nccn32)C1 [Linsitinib] + O=C(CCCCCCC(=O)Nc1ccccc1)NO [Vorinostat] (partner 1 µM)
Method in brief: as §1

Cell Line | relative viability (Ispinesib + Dasatinib; first compound 0.001 µM) | relative viability (Ispinesib + Dasatinib; first compound 0.003162 µM) | relative viability (Ispinesib + Dasatinib; first compound 0.01 µM) | relative viability (Ispinesib + Dasatinib; first compound 0.03162 µM) | relative viability (Ispinesib + Dasatinib; first compound 0.1 µM) | relative viability (Ispinesib + Lapatinib; first compound 0.001 µM) | relative viability (Ispinesib + Lapatinib; first compound 0.003162 µM) | relative viability (Ispinesib + Lapatinib; first compound 0.01 µM) | relative viability (Ispinesib + Lapatinib; first compound 0.03162 µM) | relative viability (Ispinesib + Lapatinib; first compound 0.1 µM) | relative viability (Ispinesib + Vorinostat; first compound 0.001 µM) | relative viability (Ispinesib + Vorinostat; first compound 0.003162 µM) | relative viability (Ispinesib + Vorinostat; first compound 0.01 µM) | relative viability (Ispinesib + Vorinostat; first compound 0.03162 µM) | relative viability (Ispinesib + Vorinostat; first compound 0.1 µM) | relative viability (Linsitinib + Vorinostat; first compound 0.01 µM) | relative viability (Linsitinib + Vorinostat; first compound 0.03162 µM) | relative viability (Linsitinib + Vorinostat; first compound 0.1 µM) | relative viability (Linsitinib + Vorinostat; first compound 0.3162 µM) | relative viability (Linsitinib + Vorinostat; first compound 1 µM)
201T | 0.538 | 0.599 | 0.735 | 0.56 | 0.307 | 1.06 | 1.07 | 1.1 | 0.916 | 0.431 | 1 | 1.01 | 1.02 | 0.908 | 0.28 | 0.941 | 1.06 | 0.972 | 0.487 | 0.832
A549 |  |  |  |  |  | 1.07 | 1.07 | 0.952 | 0.172 | 0.127 |  |  |  |  |  |  |  |  |  | 
A-427 | 0.668 | 0.793 | 0.817 | 0.396 | 0.161 | 1.09 | 1.07 | 1.13 | 0.406 | 0.162 | 0.878 | 0.953 | 0.981 | 0.385 | 0.217 | 0.859 | 0.905 | 0.892 |  | 0.808
ABC-1 | 0.569 | 0.803 | 0.523 | 0.294 | 0.288 | 1.06 | 1.18 | 1.19 | 1.03 | 0.766 | 1.14 | 1.3 | 1.05 |  | 0.548 | 1.4 | 1.2 | 0.97 | 0.803 | 0.796
BEN | 0.36 | 0.371 | 0.307 | 0.248 | 0.141 | 0.906 | 0.892 | 0.7 | 0.357 | 0.247 | 0.538 | 0.676 | 0.642 | 0.478 | 0.374 | 0.513 | 0.573 | 0.534 | 0.434 | 0.474
CAL-12T | 0.376 | 0.482 | 0.338 | 0.128 | 0.188 | 0.625 | 0.692 | 0.742 | 0.488 | 0.235 | 0.839 | 0.914 | 0.583 | 0.585 | 0.24 | 0.69 | 0.744 | 0.727 | 0.524 | 0.569
COR-L23 | 0.564 | 0.498 | 0.474 | 0.0917 | 0.172 | 1.03 | 1.06 | 0.814 | 0.147 | 0.272 | 0.422 | 0.448 | 0.342 | 0.14 | 0.175 | 0.431 | 0.267 | 0.402 | 0.357 | 0.302
COR-L 105 | 0.462 | 0.303 | 0.31 | 0.195 | 0.238 | 0.347 | 0.311 | 0.251 | 0.247 | 0.265 | 0.933 | 0.51 | 1.04 | 0.49 | 0.522 | 0.749 | 0.872 | 0.712 | 0.389 | 0.609
Calu-6 |  |  |  |  |  | 1.24 | 0.955 | 0.526 | 0.217 | 0.256 |  |  |  |  |  |  |  |  |  | 
ChaGo-K-1 | 0.584 | 0.605 | 0.643 | 0.668 | 0.226 |  |  |  |  |  | 0.838 | 0.744 | 0.827 | 0.765 | 0.232 | 0.798 | 0.774 | 0.78 |  | 0.694
EBC-1 |  |  |  |  |  | 0.203 | 0.204 | 0.223 | 0.13 | 0.193 |  |  |  |  |  |  |  |  |  | 
EKVX | 0.601 | 0.59 | 0.429 | 0.605 | 0.439 | 0.208 | 0.206 | 0.204 | 0.223 | 0.131 | 0.741 | 0.78 | 0.693 | 0.623 | 0.561 | 0.753 | 0.785 | 0.798 | 0.481 | 0.496
EMC-BAC-2 | 0.354 | 0.236 | 0.351 | 0.257 | 0.19 | 0.936 | 0.933 | 1 | 0.724 | 0.233 | 0.539 | 0.745 | 0.419 | 0.147 | 0.365 | 0.44 | 0.441 | 0.426 | 0.398 | 0.214
EPLC-272H | 0.407 | 0.354 | 0.32 | 0.172 | 0.182 | 0.919 | 1.11 | 1.02 | 0.561 | 0.145 | 0.351 | 0.635 | 0.322 | 0.128 | 0.341 | 0.533 | 0.383 | 0.548 | 0.297 | 0.484
H3255 | 0.316 | 0.419 | 0.357 | 0.307 | 0.244 | 0.214 | 0.171 | 0.205 | 0.176 | 0.236 | 0.79 | 1.09 | 0.804 | 0.479 | 0.413 |  | 0.761 | 0.698 | 0.396 | 0.682
HARA | 0.26 | 0.258 | 0.301 | 0.293 | 0.0741 | 0.8 | 0.856 | 0.987 | 0.151 | 0.144 | 0.519 | 0.567 | 0.528 | 0.477 | 0.389 | 0.51 | 0.513 | 0.648 | 0.347 | 0.351
HCC-15 | 0.711 | 0.662 | 0.604 | 0.371 | 0.21 | 0.91 | 0.983 | 1.03 | 0.402 | 0.14 | 0.861 | 0.976 | 0.968 | 0.852 | 0.344 | 0.822 | 0.752 | 0.763 | 0.633 | 0.705
HCC-44 |  |  |  |  |  | 1.05 | 1.01 | 1.37 | 0.658 | 0.158 | 1.04 | 1.05 | 1.15 | 1.23 | 1.08 | 1.02 | 1.01 | 1.03 | 0.734 | 1.01
HCC-78 | 0.388 | 0.542 | 0.464 | 0.348 | 0.267 | 0.762 | 1.47 | 0.811 |  | 0.308 | 0.422 | 0.49 | 0.459 | 0.404 | 0.414 |  | 0.47 | 0.462 | 0.402 | 0.315
